Assays:
cruzain = biological target: T1, cruzain (Trypanosoma cruzi, UniProt P25779); experiment: Cruzain enzyme inhibition assay (cleavage of fluorogenic substrate Z-FR-AMC); format: biochemical
T1 construct: made in house; host or cells: Escherichia coli (strain M15)
Experimental: Pro-cruzain truncated at the C-terminus was expressed and purified using a previously described protocol ([Ferreira et al., 2019]). Escherichia coli (strain M15) cultures were grown overnight at 37°C and 200 rpm in Luria Bertani (LB) medium supplemented with ampicillin (100 μg/ml) and kanamycin (50 μg/ml). Next, the cultures were diluted 10-fold in fresh LB medium supplemented with 0.5 M NaCl, 0.2% glucose, 1 mM betaine, 0.5 M sorbitol, 100 μg/ml ampicillin, and 50 μg/ml kanamycin and incubated at 37°C and 200 rpm. At an optical density (OD600) of 0.9, the cultures were incubated at 47°C for 20 min to promote the expression of chaperones. Then, the expression of cruzain was induced by adding isopropyl β-D-thiogalactopyranoside (IPTG) to a final concentration of 0.2 mM, which was followed by overnight incubation of the cultures at 20°C and 200 rpm. Next, the cultures were centrifuged (5,000 rpm, 30 min, 4°C), and the cells were suspended in 50 ml of lysis buffer (300 mM NaCl, 50 mM Tris-HCl, and 1.6 mg/ml lysozyme, pH 8.0) per liter of culture and lysed by sonication (12 cycles of 30 s). This cell lysate was centrifuged (9,000 rpm, 30 min, 4°C), and the supernatant was collected. Cruzain was precipitated by incubation with 35% ammonium sulfate (2 h), and this suspension was centrifuged at 9,000 rpm for 30 min at 4°C. The precipitated cruzain was resuspended in lysis buffer, and the sample was dialyzed to eliminate ammonium sulfate. The soluble fraction of the dialysate was loaded on a Ni−NTA column (Qiagen, Hilden, Germany), and the contaminants were washed using washing buffer (300 mM NaCl, 50 mM Tris-HCl, and 10 mM imidazole, pH 8.0). Cruzain was eluted by applying an increasing imidazole gradient: 25, 50, 75, 100, and 250 mM. The fractions containing cruzain were pooled together and dialyzed against 1.5 L of 0.1 M acetate buffer, pH 5.5, and then concentrated to 0.5 mg/ml. Pro-cruzain was activated by incubation with activation buffer (100 mM sodium acetate, pH 5.5, 10 mM EDTA, 5 mM DTT, and 1 M NaCl) at 37°C. […] After activation, the enzyme was diluted 20-fold in binding buffer (20 mM sodium phosphate and 150 mM NaCl, pH 7.2) and added to thiopropyl Sepharose 6B resin (GE Healthcare Life Sciences, Pittsburgh, PA). After overnight incubation at 4°C, the resin was loaded on a column, and cruzain was eluted with binding buffer supplemented with 20 mM DTT. Fractions containing cruzain were pooled together and stored in 0.1 M sodium acetate, pH 5.5, at −80°C.
Cruzain activity was followed by monitoring the cleavage of the fluorogenic substrate Z-Phe-Arg-aminomethyl coumarin (Z-FR-AMC), as previously described ([Ferreira et al., 2019]), using 96-well flat-bottom black plates and wavelengths of 355 nm for excitation and 460 nm for emission. All cruzain assays were performed in 0.1 M sodium acetate buffer with 5 mM dithiothreitol (DTT) and 0.01% Triton X-100, pH 5.5. […] The cleavage of the substrate was monitored for 5 min, and the activity was calculated based on the initial reaction rates compared with the rate of a DMSO control at 30°C. The IC50 values were independently calculated by considering the rate measurements for at least six inhibitor concentrations, each evaluated in triplicate. To determine the mechanism of cruzain inhibition, eight concentrations of the substrate Z-FR-AMC and four concentrations of the inhibitor were employed, each in triplicate. Kinetic parameters were determined using the SigmaPlot (Systat Software Inc., Erkrath, Germany) enzyme kinetics module. Compounds were tested in two or three independent experiments. All enzyme assays were performed using varying Triton X-100 concentrations (0, 0.01, and 0.1%) ([Ferreira et al., 2009]). Compound concentrations were 100 μM in the single-dose percentage inhibition assays.

rhodesain = rhodesain (Trypanosoma brucei rhodesiense, UniProt Q95PM0); experiment: Rhodesain fluorescence-based inhibition assay (Z-FR-AMC); format: biochemical; details: Table S3; compound 100 µM
Chain of rhodesain (Q95PM0 entry or part of it): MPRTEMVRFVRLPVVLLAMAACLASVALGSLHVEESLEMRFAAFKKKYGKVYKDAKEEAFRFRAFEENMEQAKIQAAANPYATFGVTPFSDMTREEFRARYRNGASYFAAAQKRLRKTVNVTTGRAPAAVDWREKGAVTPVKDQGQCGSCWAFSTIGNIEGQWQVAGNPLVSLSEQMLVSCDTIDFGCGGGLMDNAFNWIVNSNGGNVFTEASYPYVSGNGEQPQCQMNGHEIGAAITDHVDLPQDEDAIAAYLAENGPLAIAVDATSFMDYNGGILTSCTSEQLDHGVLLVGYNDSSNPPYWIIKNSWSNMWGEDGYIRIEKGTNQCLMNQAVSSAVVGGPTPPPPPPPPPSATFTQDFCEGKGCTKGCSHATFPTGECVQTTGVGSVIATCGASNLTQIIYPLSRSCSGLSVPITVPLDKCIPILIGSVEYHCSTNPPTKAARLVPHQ
Experimental: Rhodesain activity was measured using a fluorescence-based assay as previously described ([Fonseca et al., 2015]). The cleavage rates of the fluorogenic substrate Z-Phe-Arg-aminomethyl coumarin (Z-FR-AMC) were monitored at wavelengths of 340 nm for excitation and 440 nm for emission. All assays were performed in triplicate in a 0.1 M sodium acetate buffer, pH 5.5, with 1 mM beta-mercaptoethanol and 0.01% Triton X-100. The final concentration of rhodesain was 3 nM, and the substrate concentration was 2.5 μM. The cleavage of the substrate was followed by continuous reading for 5 min, and enzyme activity in the presence of 100 μM of each potential inhibitor was calculated based on initial velocity rates compared to DMSO controls. All compounds were tested in triplicate in three independent experiments.

[1] = tested on: T. cruzi intracellular amastigotes; experiment: Assay against T. cruzi intracellular amastigotes (Tulahuen lacZ strain in HFF-1 fibroblasts); format: cell-based, Trypanosoma cruzi; details: Trypanosoma cruzi, HFF-1, 120 h, Table 3, 120 h, mean ± SD of three assays
Experimental: Biological assays against T. cruzi intracellular amastigotes were performed as reported previously using the T. cruzi Tulahuen strain, which is genetically engineered to express the E. coli β-galactosidase gene lacZ ([Buckner et al., 1996]). β-Galactosidase catalyzes a colorimetric reaction with chlorophenol red β-D-galactopyranoside (CPRG, Sigma Chemical Co., St. Louis, MO) as the substrate. The assays were conducted in 96-well tissue culture plates, and the compounds to be tested were prepared in 100% DMSO. Epimastigotes were maintained in liver infusion tryptone (LIT) enriched with 10% fetal calf serum (FCS), streptomycin, and penicillin at 28°C. Epimastigotes were converted to trypomastigotes by incubation in Grace’s insect medium (Sigma–Aldrich, St. Louis, MO) enriched with 10% FCS at 28°C. Human HFF-1 fibroblasts were seeded at 2 × 10^3/well in 80 μl of RPMI 1640 without phenol red and incubated overnight at 37°C and 5% CO2. Trypomastigotes were seeded at 1.0 × 10^4/well in 20 μl of RPMI 1640, and the plates were incubated at 37°C and 5% CO2. The next day, the synthesized compounds were added (50 μl) in 3-fold serial dilutions at concentrations ranging from 0.4 to 300 μM, and the plates were incubated at 37°C and 5% CO2. Each compound concentration was assayed in triplicate. After 120 h, 50 μl of chlorophenol red β-D-galactopyranoside (CPRG, Sigma–Aldrich) and IGEPAL CA-630 (Sigma–Aldrich) at a final concentration of 0.1% were added. The absorbance was measured at a wavelength of 570 nm in an automated microplate reader. The data were transferred to SigmaPlot 10.0 (Systat Software Inc., Erkrath, Germany) to determine the IC50 values. Benznidazole (BZ, Sigma–Aldrich) was used as a positive control, and untreated wells (100% parasite growth) were used as negative controls in all plates. All compounds were tested in three independent assays.

[2] = Parallel artificial membrane permeability assay (PAMPA); format: in vitro ADME; details: PAMPA, Table 3; donor pH 6.5, acceptor pH 7.4, 5 h
Experimental: The permeability of the compounds was assessed using the PAMPA method ([Yu et al., 2015]). The test compounds were dissolved in DMSO to a concentration of 5 mM. Next, the compounds were diluted in a stock plate in saline phosphate buffer (PBS), pH 6.5, containing 1% DMSO to a concentration of 1 µM. Then, 300 µl of each test compound was added to the donor plate. Afterward, 200 µl of PBS buffer, pH 7.4, was added to the acceptor plate. The donor plate was attached to the acceptor plate. The assembled acceptor-donor plate was then incubated at 37°C for 5 h under gentle agitation. To analyze the concentration of the compounds by mass spectrometry, two analysis plates (one for the donor and another for the acceptor plate) containing 300 μl of MEOH:ACN 50:50 were prepared. To the donor analysis plate, 90 µl of PBS, pH 6.5, and 10 µl of the content of the donor plate were added. For the acceptor analysis plate, 100 µl of the content of the acceptor plate was added. To monitor any potential decomposition/intrinsic instability of the test compounds in solution, samples from the stock plate were subjected to LC-MS/MS. The compounds that presented Pe ≥ 1.5 × 10^−6 cm/s were classified as permeable, while compounds that presented Pe < 1.5 × 10^−6 cm/s were considered poorly permeable or nonpermeable.

T1 sequence (P25779 123-337 limits assumed): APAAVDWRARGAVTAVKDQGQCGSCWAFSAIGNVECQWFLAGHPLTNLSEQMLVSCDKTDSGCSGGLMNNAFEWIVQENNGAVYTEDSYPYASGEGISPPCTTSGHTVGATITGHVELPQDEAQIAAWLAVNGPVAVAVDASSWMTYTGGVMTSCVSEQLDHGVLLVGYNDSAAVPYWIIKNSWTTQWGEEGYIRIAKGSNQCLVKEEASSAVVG

## O=C(COc1ccc2cc(C(=O)O)ccc2c1)NCCc1nc2ccccc2[nH]1 [Compound 13]
cruzain; 1.5 nM cruzain, 5.0 µM Z-FR-AMC, mean ± SD of 2–3 assays, read-out: IC50 (µM) against cruzain
  IC50: 24.2 ± 4.5 µM
cruzain; compound 100 µM, mean of three measures
  inhibition at 100 µM: 89%
rhodesain
  inhibition at 100 µM: 54%
[1]
  IC50: > 50 µM
[2]
  Papp at 5 h, 1 µM: 0.83 ×10⁻⁶ cm/s
